ChEMBL document CHEMBL1136470, “Rational design, synthesis and structure-activity relationships of a cyclic succinate series of TNF-alpha converting enzyme inhibitors. Part 1: lead identification” (Bioorg Med Chem Lett, 2003)

Experiments:
Interstitial collagenase = biological target: T1, Interstitial collagenase (Homo sapiens, UniProt P03956); test: Inhibition of matrix metalloprotease-1 (MMP-1)
T1 sequence (P03956 whole entry): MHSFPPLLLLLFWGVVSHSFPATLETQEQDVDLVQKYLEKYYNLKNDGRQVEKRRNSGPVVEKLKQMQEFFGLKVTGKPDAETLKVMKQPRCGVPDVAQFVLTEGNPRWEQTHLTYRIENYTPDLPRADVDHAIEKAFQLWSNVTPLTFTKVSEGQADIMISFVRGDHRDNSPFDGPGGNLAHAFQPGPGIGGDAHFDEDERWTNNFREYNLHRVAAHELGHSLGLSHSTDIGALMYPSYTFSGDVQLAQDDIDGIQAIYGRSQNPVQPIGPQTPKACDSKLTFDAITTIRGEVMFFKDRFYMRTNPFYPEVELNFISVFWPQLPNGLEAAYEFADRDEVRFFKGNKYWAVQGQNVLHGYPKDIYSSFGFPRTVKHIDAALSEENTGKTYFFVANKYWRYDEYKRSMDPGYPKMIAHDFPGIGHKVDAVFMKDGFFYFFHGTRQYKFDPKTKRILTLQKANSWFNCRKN

[1] = biological target: Matrix metalloproteinase-9 (Homo sapiens, UniProt P14780); test: Inhibition of matrix metalloprotease-9 (MMP-9)
[2] = Inhibition of aggrecanase
[3] = biological target: 72 kDa type IV collagenase (Homo sapiens, UniProt P08253); test: Inhibition of matrix metalloprotease-2 (MMP-2)
[4] = biological target: Disintegrin and metalloproteinase domain-containing protein 17 (Sus scrofa, UniProt O77636); test: Inhibition of porcine TACE
Homo sapiens = species: Homo sapiens; test: Compound tested for the in vitro inhibition of TNF-alpha production was determined by using LPS-stimulated human whole blood assay (WBA); format: functional

Sequence of Disintegrin and metalloproteinase domain-containing protein 17 (O77636 whole entry, the tested form may be a part): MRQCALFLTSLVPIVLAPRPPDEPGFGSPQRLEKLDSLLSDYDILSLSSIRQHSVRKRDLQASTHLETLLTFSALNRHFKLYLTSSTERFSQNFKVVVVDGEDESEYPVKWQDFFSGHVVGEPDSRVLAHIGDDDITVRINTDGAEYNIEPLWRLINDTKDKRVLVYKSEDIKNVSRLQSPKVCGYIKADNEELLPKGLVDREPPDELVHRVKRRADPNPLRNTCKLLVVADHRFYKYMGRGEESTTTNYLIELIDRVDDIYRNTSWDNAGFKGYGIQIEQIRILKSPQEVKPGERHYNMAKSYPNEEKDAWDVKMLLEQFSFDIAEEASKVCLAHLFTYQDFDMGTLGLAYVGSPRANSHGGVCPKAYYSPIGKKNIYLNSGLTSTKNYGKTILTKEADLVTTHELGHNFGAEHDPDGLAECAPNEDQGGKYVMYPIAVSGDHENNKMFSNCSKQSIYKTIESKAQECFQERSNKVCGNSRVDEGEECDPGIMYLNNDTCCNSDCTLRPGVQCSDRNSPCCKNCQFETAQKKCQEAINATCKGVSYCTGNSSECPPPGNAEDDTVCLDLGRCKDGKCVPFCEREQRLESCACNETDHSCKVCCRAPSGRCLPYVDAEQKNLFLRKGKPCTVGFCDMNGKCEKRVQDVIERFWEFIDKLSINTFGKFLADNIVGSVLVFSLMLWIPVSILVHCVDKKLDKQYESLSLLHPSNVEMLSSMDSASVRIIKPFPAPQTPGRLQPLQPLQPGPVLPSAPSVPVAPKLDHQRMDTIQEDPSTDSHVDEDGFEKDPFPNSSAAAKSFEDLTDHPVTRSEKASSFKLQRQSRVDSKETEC
Sequence of 72 kDa type IV collagenase (P08253 whole entry, the tested form may be a part): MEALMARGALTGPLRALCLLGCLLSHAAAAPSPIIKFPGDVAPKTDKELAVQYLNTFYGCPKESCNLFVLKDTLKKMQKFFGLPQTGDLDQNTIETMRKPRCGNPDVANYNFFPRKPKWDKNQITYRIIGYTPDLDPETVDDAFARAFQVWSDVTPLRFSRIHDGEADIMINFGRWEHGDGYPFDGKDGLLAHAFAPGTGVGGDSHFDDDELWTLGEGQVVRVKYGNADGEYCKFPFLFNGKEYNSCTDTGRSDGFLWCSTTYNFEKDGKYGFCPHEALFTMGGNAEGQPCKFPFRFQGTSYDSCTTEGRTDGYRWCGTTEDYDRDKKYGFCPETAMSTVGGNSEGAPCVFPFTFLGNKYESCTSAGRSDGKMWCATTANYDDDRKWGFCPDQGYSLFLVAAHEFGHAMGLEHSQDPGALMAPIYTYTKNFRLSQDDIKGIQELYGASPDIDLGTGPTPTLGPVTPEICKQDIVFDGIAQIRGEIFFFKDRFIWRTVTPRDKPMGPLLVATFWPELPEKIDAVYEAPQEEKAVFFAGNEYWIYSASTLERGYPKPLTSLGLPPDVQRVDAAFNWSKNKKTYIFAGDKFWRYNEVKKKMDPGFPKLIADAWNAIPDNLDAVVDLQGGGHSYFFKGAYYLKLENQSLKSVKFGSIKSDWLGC
Sequence of Matrix metalloproteinase-9 (P14780 whole entry): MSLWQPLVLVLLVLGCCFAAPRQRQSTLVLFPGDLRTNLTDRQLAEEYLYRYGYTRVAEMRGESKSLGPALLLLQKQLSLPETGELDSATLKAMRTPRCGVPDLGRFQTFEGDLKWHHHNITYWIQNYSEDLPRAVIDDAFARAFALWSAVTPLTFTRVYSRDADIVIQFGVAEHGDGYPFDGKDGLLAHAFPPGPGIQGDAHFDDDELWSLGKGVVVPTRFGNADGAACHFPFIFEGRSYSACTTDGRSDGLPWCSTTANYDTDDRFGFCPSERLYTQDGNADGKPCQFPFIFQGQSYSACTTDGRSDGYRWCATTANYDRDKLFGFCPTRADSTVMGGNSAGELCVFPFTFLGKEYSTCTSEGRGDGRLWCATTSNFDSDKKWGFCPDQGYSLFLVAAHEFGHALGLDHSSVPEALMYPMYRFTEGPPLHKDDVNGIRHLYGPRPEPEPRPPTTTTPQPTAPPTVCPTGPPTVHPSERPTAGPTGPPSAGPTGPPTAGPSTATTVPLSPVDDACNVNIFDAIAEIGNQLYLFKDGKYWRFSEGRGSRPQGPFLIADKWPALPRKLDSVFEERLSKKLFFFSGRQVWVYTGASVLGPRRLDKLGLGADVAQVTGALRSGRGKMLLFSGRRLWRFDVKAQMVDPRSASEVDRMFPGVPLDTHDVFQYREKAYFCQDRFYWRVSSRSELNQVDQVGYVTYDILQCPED

SMILES | Ki (Interstitial collagenase) [nM] | Ki [1] [nM] | Ki [2] [nM] | Ki [3] [nM] | IC50 [4] [nM] | IC50 (Homo sapiens) [nM]
O=C(NO)[C@H]1CCCC[C@@H]1C(=O)Nc1ccc(C#Cc2ccc3ncccc3c2)cc1 | > 4950 | > 2130 | > 500 | > 3330 | 7240 | > 50000
O=C(NO)[C@H]1CCCC[C@@H]1C(=O)Nc1ccc(COc2ccnc3ccccc23)cc1 | > 4950 | > 2130 | > 500 | > 3330 | 8 | > 50000
O=C(NO)[C@H]1CCCC[C@@H]1C(=O)Nc1ccc(OCc2ccccc2)cc1 | > 4950 | > 2130 | > 500 | > 3330 | 89 | > 50000
O=C1NCCCC[C@@H](C(=O)NCC(=O)N2CCOCC2)NC(=O)[C@H](Cc2ccc(-c3ccccc3C(F)(F)F)cc2)[C@@H](C(=O)NO)CCCO1 | > 2000 | > 2000 |  | > 2000 |  | > 70
O=C(NO)[C@H]1CCCC[C@@H]1C(=O)Nc1ccc(COc2ccc3ncccc3c2)cc1 | > 4950 | 876 | > 500 | 1080 | 56 | > 50000
O=C(NO)[C@H]1CCC[C@@H]1C(=O)Nc1ccc(OCc2cc(Cl)cc(Cl)c2)cc1 | > 4950 | > 2130 | > 500 | > 3330 | 53 | > 50000
O=C(NO)[C@H]1CCC[C@@H]1C(=O)Nc1ccc(OCc2ccncc2)cc1 | > 4950 | > 2130 | > 500 | > 3330 | 620 | > 50000
O=C(NO)[C@H]1CCC[C@@H]1C(=O)Nc1ccc(Cc2ccncc2)cc1 | > 4950 | > 2130 | > 500 | 675 | 210 | > 50000
O=C(NO)[C@H]1CCCC[C@@H]1C(=O)Nc1ccc(COc2cccc3ncccc23)cc1 | > 4950 | 1360 | > 500 | 585 | 45 | > 50000
O=C(NO)[C@H]1CCC[C@@H]1C(=O)Nc1ccc(OCc2ccccc2)cc1 | > 4950 | > 2130 | > 500 | > 3330 | 110 | > 50000
O=C(NO)[C@H]1CCC[C@@H]1C(=O)Nc1ccc(COc2ccnc3ccccc23)cc1 | > 4950 | > 2130 | > 500 | > 3330 | 39 | > 50000
